Experimental data from patent US20040175789A1, “G protein coupled receptors and dna sequences thereof” (priority 2003, published 2004).
Blank lines part the entries; values can stand above or below the compound they belong to.

How the values were obtained:
Contig 88:1 = test: Selectivity check: Ca2+ signal (Flipr) in CHO-CRE cells transfected with Contig 88:1; assay type: cell-based, human; conditions: not primed
Procedure: (§1) Twenty-four hours before the experiment, the cells are havested, counted and seeded in 384-well plates at 10000 cells per wells and put at 37° C./5% CO2. The day of the experiment, the injection plates containing the compounds are prepared as described in the following table:
(§2) The cells are loaded with 2 μM Fluo-4 in HBSS/Hepes buffer. After one hour incubation at 37° C./5% CO2, the cells are washed with HBSS/Hepes containing 2.5 mM probenecid (2 wash cycles+volume adjustment are performed). Plates that will be primed with ATP are adjusted to 20 μl final volume and plates that will directly receive the compounds are adjusted to 40 μl final volume. Four assay plates are primed with 20 μl ATP at 20 μM initial (10 μM final concentration) and are incubated at room temperature for 30 minutes. Compounds plates at 3 times the final concentration are then injected with the Flipr pipettor on both primed and not primed plates. The Flipr laser is setup on 0.6 watt, the exposure length at 0.4 sec. […] A 10 seconds baseline is recorded prior compounds injection. After the injection, the signal is recorded every second for one minute. Then, signal decay is measured for 20 additional seconds. Two statistics are exported: Fbasal and Fmax. For each well, a dF/F value is expressed with the following formula: (Fmax−Fbasal)/Fbasal is the basal fluorescence prior compound injection and Fmax is the peak value of the kinetic.
(§3) These compounds are also tested against wild type cells and other transfected cells in order to check the selectivity.

[1] = molecular target: T1, orphan receptor Singlet_413 (Homo sapiens, UniProt Q8TDS5); test: Ligand fishing: transient Ca2+ signal (Flipr384, Fluo-4) in CHO-K1-CRE cells stably transfected with Singlet_413; assay type: cell-based; conditions: not primed
T1 construct: expressed in transfected cells
Procedure: as §1, §2

CHO-K1 (CHO-CRE) cells = test: Selectivity check: Ca2+ signal (Flipr) in CHO-CRE CHO-K1 cells without receptor; assay type: cell-based; conditions: not primed
Procedure: as §1, §2, §3

CHO-K1-ATCC cells = test: Selectivity check: Ca2+ signal (Flipr) in wild type CHO-K1-ATCC cells; assay type: cell-based; conditions: for dF/F (Fmax−Fbasal)/Fbasal, CHO-K1-ATCC, np: not primed
Procedure: as §1, §2, §3

T1 sequence (Q8TDS5 whole entry): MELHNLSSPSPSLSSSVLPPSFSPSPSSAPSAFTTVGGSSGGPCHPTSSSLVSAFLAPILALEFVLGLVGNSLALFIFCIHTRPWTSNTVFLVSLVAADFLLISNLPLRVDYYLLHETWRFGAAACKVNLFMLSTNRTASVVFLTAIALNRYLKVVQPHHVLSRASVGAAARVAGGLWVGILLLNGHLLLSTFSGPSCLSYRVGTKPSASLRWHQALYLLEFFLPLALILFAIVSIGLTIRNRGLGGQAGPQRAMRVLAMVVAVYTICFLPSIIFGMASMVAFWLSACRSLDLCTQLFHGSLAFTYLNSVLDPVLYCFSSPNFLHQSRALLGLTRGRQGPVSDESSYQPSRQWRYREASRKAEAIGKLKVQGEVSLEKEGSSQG

SMILES: CCCCC/C=C\C/C=C\C/C=C\C=C\[C@@H](O)CCCC(=O)O (racemic) [Cpd 2, (±)5-HETE]
dF/F (Fmax−Fbasal)/Fbasal, CHO-CRE Contig 88:1, np (Contig 88:1): 0.01
dF/F (Fmax−Fbasal)/Fbasal, CHO-CRE Singlet_413, np [1]: 0.01
dF/F (Fmax−Fbasal)/Fbasal, CHO-CRE CHO-K1, np (CHO-K1 (CHO-CRE) cells): −0.05
dF/F (Fmax−Fbasal)/Fbasal, CHO-K1-ATCC, np (CHO-K1-ATCC cells): 0.02

SMILES: CCCCCCCC/C=C\C/C=C\C=C\C(O)CCCC(=O)O (racemic) [Cpd 4, (±)5-HETrE]
dF/F (Fmax−Fbasal)/Fbasal, CHO-CRE Contig 88:1, np (Contig 88:1): 0.01
dF/F (Fmax−Fbasal)/Fbasal, CHO-CRE Singlet_413, np [1]: 0.03
dF/F (Fmax−Fbasal)/Fbasal, CHO-CRE CHO-K1, np (CHO-K1 (CHO-CRE) cells): −0.01
dF/F (Fmax−Fbasal)/Fbasal, CHO-K1-ATCC, np (CHO-K1-ATCC cells): 0.01

SMILES: CC/C=C\C/C=C\C/C=C\C/C=C\C=C\C(O)CCCC(=O)O (racemic) [Cpd 5, (±)5-HEPE]
dF/F (Fmax−Fbasal)/Fbasal, CHO-CRE Contig 88:1, np (Contig 88:1): 0.01
dF/F (Fmax−Fbasal)/Fbasal, CHO-CRE Singlet_413, np [1]: 0.03
dF/F (Fmax−Fbasal)/Fbasal, CHO-CRE CHO-K1, np (CHO-K1 (CHO-CRE) cells): −0.04
dF/F (Fmax−Fbasal)/Fbasal, CHO-K1-ATCC, np (CHO-K1-ATCC cells): 0.03

SMILES: CCCCC/C=C\C[C@@H](O)/C=C/C=C/C=C/[C@@H](O)CCCC(=O)O (relative stereo) [Cpd 8, 5(S), 12(R)-DIHETE all trans]
dF/F (Fmax−Fbasal)/Fbasal, CHO-CRE Contig 88:1, np (Contig 88:1): 0.01
dF/F (Fmax−Fbasal)/Fbasal, CHO-CRE Singlet_413, np [1]: 0.01
dF/F (Fmax−Fbasal)/Fbasal, CHO-CRE CHO-K1, np (CHO-K1 (CHO-CRE) cells): −0.04
dF/F (Fmax−Fbasal)/Fbasal, CHO-K1-ATCC, np (CHO-K1-ATCC cells): 0.02

SMILES: CCCCC/C=C\C/C=C\C/C=C\C=C\[C@@H](O)CCCC(=O)O [Cpd 1, 5(S)-HETE]
dF/F (Fmax−Fbasal)/Fbasal, CHO-CRE Contig 88:1, np (Contig 88:1): 0.00
dF/F (Fmax−Fbasal)/Fbasal, CHO-CRE Singlet_413, np [1]: 0.01
dF/F (Fmax−Fbasal)/Fbasal, CHO-CRE CHO-K1, np (CHO-K1 (CHO-CRE) cells): −0.02
dF/F (Fmax−Fbasal)/Fbasal, CHO-K1-ATCC, np (CHO-K1-ATCC cells): 0.02

SMILES: CCCCC/C=C\C=C\[C@@H](O)C/C=C\C/C=C\CCCC(=O)O [Cpd 3, 11(S)-HETE]
dF/F (Fmax−Fbasal)/Fbasal, CHO-CRE Contig 88:1, np (Contig 88:1): 0.00
dF/F (Fmax−Fbasal)/Fbasal, CHO-CRE Singlet_413, np [1]: 0.00
dF/F (Fmax−Fbasal)/Fbasal, CHO-CRE CHO-K1, np (CHO-K1 (CHO-CRE) cells): −0.03
dF/F (Fmax−Fbasal)/Fbasal, CHO-K1-ATCC, np (CHO-K1-ATCC cells): −0.04

SMILES: CCCCC/C=C\C/C=C\C/C=C\C=C\[C@H](CCCC(=O)O)OO [Cpd 6, 5(S)-HPETE]
dF/F (Fmax−Fbasal)/Fbasal, CHO-CRE Contig 88:1, np (Contig 88:1): 0.00
dF/F (Fmax−Fbasal)/Fbasal, CHO-CRE Singlet_413, np [1]: 0.01
dF/F (Fmax−Fbasal)/Fbasal, CHO-CRE CHO-K1, np (CHO-K1 (CHO-CRE) cells): −0.01
dF/F (Fmax−Fbasal)/Fbasal, CHO-K1-ATCC, np (CHO-K1-ATCC cells): 0.03

SMILES: CCCCC/C=C\C[C@@H]1O[C@H]1C(O)/C=C\C/C=C\CCCC(=O)O (stereo partly shown) [Cpd 7, HEPOXILIN B3]
dF/F (Fmax−Fbasal)/Fbasal, CHO-CRE Contig 88:1, np (Contig 88:1): 0.00
dF/F (Fmax−Fbasal)/Fbasal, CHO-CRE Singlet_413, np [1]: 0.02
dF/F (Fmax−Fbasal)/Fbasal, CHO-CRE CHO-K1, np (CHO-K1 (CHO-CRE) cells): −0.01
dF/F (Fmax−Fbasal)/Fbasal, CHO-K1-ATCC, np (CHO-K1-ATCC cells): 0.01

SMILES: CCCCC/C=C\C/C=C\C/C=C\C/C=C\CCCC(=O)O [Cpd 13, ARACHIDONIC ACID (20:4 n-6)]
dF/F (Fmax−Fbasal)/Fbasal, CHO-CRE Contig 88:1, np (Contig 88:1): 0.02
dF/F (Fmax−Fbasal)/Fbasal, CHO-CRE Singlet_413, np [1]: 0.03
dF/F (Fmax−Fbasal)/Fbasal, CHO-CRE CHO-K1, np (CHO-K1 (CHO-CRE) cells): −0.05
dF/F (Fmax−Fbasal)/Fbasal, CHO-K1-ATCC, np (CHO-K1-ATCC cells): 0.01

SMILES: CCCCC/C=C\C/C=C\C/C=C\C/C=C\CCCC(=O)OC(CO)CO [Cpd 14, 2-ARACHIDONOYLGLYCEROL]
dF/F (Fmax−Fbasal)/Fbasal, CHO-CRE Contig 88:1, np (Contig 88:1): 0.00
dF/F (Fmax−Fbasal)/Fbasal, CHO-CRE Singlet_413, np [1]: 0.02
dF/F (Fmax−Fbasal)/Fbasal, CHO-CRE CHO-K1, np (CHO-K1 (CHO-CRE) cells): −0.05
dF/F (Fmax−Fbasal)/Fbasal, CHO-K1-ATCC, np (CHO-K1-ATCC cells): 0.00

Now from value to compound, other results behind:

dF/F (Fmax−Fbasal)/Fbasal, CHO-CRE Singlet_413, np [1]: 0.02
SMILES: CCCCC/C=C\CC1OC1C/C=C\C/C=C\CCCC(=O)O (stereo not shown) [Cpd 9, 11,12-EPOXYEICOSATRIENOIC ACID]
dF/F (Fmax−Fbasal)/Fbasal, CHO-CRE Contig 88:1, np (Contig 88:1): 0.02
dF/F (Fmax−Fbasal)/Fbasal, CHO-CRE CHO-K1, np (CHO-K1 (CHO-CRE) cells): −0.02
dF/F (Fmax−Fbasal)/Fbasal, CHO-K1-ATCC, np (CHO-K1-ATCC cells): 0.00

dF/F (Fmax−Fbasal)/Fbasal, CHO-CRE Singlet_413, np [1]: 0.01
SMILES: CCCCC/C=C\C/C=C\C/C=C\C=C\C(=O)CCCC(=O)O [Cpd 10, 5-KETOEICOSATETRAENOIC ACID]
dF/F (Fmax−Fbasal)/Fbasal, CHO-CRE Contig 88:1, np (Contig 88:1): 0.00
dF/F (Fmax−Fbasal)/Fbasal, CHO-CRE CHO-K1, np (CHO-K1 (CHO-CRE) cells): −0.05
activity (Ca2+ signal) on the non-transfected cells (CHO-K1-ATCC cells; non-transfected cells): not active
dF/F (Fmax−Fbasal)/Fbasal, CHO-K1-ATCC, np (CHO-K1-ATCC cells): 0.04

dF/F (Fmax−Fbasal)/Fbasal, CHO-CRE Singlet_413, np [1]: −0.01
SMILES: CCCCC/C=C\C/C=C\C/C=C\C/C=C\CCCC(=O)OC(CO)COC(=O)CCCCCCCCCCCCCCCCC (stereo not shown) [Cpd 11, 1-STEAROYL-2-ARACHIDONOYL-GLYCEROL]
dF/F (Fmax−Fbasal)/Fbasal, CHO-CRE Contig 88:1, np (Contig 88:1): −0.01
dF/F (Fmax−Fbasal)/Fbasal, CHO-CRE CHO-K1, np (CHO-K1 (CHO-CRE) cells): −0.05
dF/F (Fmax−Fbasal)/Fbasal, CHO-K1-ATCC, np (CHO-K1-ATCC cells): 0.01

dF/F (Fmax−Fbasal)/Fbasal, CHO-CRE Singlet_413, np [1]: 0.05
SMILES: CC/C=C\C/C=C\C/C=C\C/C=C\C/C=C\CCCC(=O)O [Cpd 12, EICOSAPENTAENOIC ACID (20:5 n-3)]
dF/F (Fmax−Fbasal)/Fbasal, CHO-CRE Contig 88:1, np (Contig 88:1): 0.03
dF/F (Fmax−Fbasal)/Fbasal, CHO-CRE CHO-K1, np (CHO-K1 (CHO-CRE) cells): −0.04
dF/F (Fmax−Fbasal)/Fbasal, CHO-K1-ATCC, np (CHO-K1-ATCC cells): 0.02

dF/F (Fmax−Fbasal)/Fbasal, CHO-CRE Singlet_413, np [1]: 0.11
SMILES: OCCN(CCO)c1nc(N2CCCCC2)c2nc(N(CCO)CCO)nc(N3CCCCC3)c2n1 [Cpd 15, Dipyridamole]
dF/F (Fmax−Fbasal)/Fbasal, CHO-CRE Contig 88:1, np (Contig 88:1): 0.39
dF/F (Fmax−Fbasal)/Fbasal, CHO-CRE CHO-K1, np (CHO-K1 (CHO-CRE) cells): −0.04
dF/F (Fmax−Fbasal)/Fbasal, CHO-K1-ATCC, np (CHO-K1-ATCC cells): 0.38
